{"source": "paper PMC10928576", "about": "“Cpne7 deficiency induces cellular senescence and premature aging of dental pulp” (Aging Cell, 2023)", "key": {"hDPCs [1]": {"test_system": "hDPCs", "assay": "Senescence β-galactosidase (SA-β gal) staining of H2O2-treated hDPCs", "format": "cell-based, human", "conditions": "hDPCs, 1 mM H2O2, 30 min", "experimental": "The hDPCs were obtained from the Seoul National University Dental Hospital, and the experimental protocol was accepted by the Institutional Review Board of the Seoul National University (S‐D20140007). Informed consent was obtained from patients. Human DPCs were isolated and used in an in vitro experiment as described previously (Jung et al., [2011]). Human DPCs were cultured in minimum essential medium α (Gibco BRL, 12571063) supplemented with 10% heat‐inactivated fetal bovine serum (FBS; Gibco BRL, 16000044) and antibiotic‐antimycotic (Gibco BRL, 15240062) at 37°C in an atmosphere with 5% CO2. The cells were then treated with recombinant CPNE7 protein (rCPNE7, 100 ng/mL; Origene, TP306428) or CPNE7‐derived peptide (CPNE7‐DP, 10 μg/mL). After oxidative stress‐induced DNA damage using Hydrogen Peroxide Solution (H2O2; Merck, H1009) rCPNE7 was treated after replacement with a new culture medium (α‐MEM).\nHuman DPCs were fixated with Fixative Solution (Cell Signaling Technology, #9860) at room temperature for 15 min. Rinsed twice with PBS, the cells were then stained with β‐Galactosidase Staining Solution (Cell Signaling Technology, #9860) at 37°C overnight in a dry incubator (no CO2). Cells were observed using light microscopy (Primovert, Zeiss, Germany) (n = 3, each group)."}, "hDPCs [2]": {"test_system": "hDPCs", "assay": "γ-H2AX immunofluorescence in hDPCs", "format": "cell-based, human", "conditions": "1 mM H2O2, vs control", "experimental": "Human DPCs and tissue sections were treated with phosphate‐buffered saline (PBS) and 0.5% Triton X‐100 for permeabilization. After washing and blocking, cells and tissue samples were incubated overnight at 4°C with γ‐H2AX (1:100, Cell Signaling Technology, #9718) and CPNE7 (1:100) in blocking buffer (PBS and 2% bovine serum albumin). Subsequently, FITC‐conjugated anti‐rabbit secondary antibody (1:500) or Cy3‐conjugated anti‐rabbit (1:500) was applied. Cells were visualized using confocal microscopy (LSM980, Zeiss, Germany). The chromosomal DNA in the nucleus was stained with 4′,6‐diamidino‐2‐phenylindole (DAPI). The microtubules were detected using α‐TUBULIN antibodies (1:1000; Santa Cruz), and F‐ACTIN was stained with Alexa Fluor 488 or rhodamine‐conjugated phalloidin (Invitrogen). Flag‐tagged rCPNE7 was detected using Flag‐antibodies (1:500; Sigma–Aldrich), and TAU was detected by TAU antibodies (1:100; CUSABIO). Immunofluorescence staining of TAU, F‐ACTIN, and α‐TUBULIN was analyzed using the IMARIS cell imaging software (Bitplane) (n = 3, each group)."}, "hDPCs [3]": {"test_system": "hDPCs", "assay": "γ-H2AX / P21 western blot in H2O2-treated hDPCs", "format": "cell-based, human", "experimental": "Cellular proteins (30 μg) were separated by 10% or 15% sodium dodecyl sulfate‐polyacrylamide gel electrophoresis (SDS‐PAGE) and transferred to polyvinylidene fluoride (PVDF) membranes. The PVDF membranes were blocked for 1 h with 5% nonfat dry milk in Tris‐buffered saline containing 0.1% Tween 20 (TBS‐T) and incubated overnight at 4°C with the primary antibody diluted in TBS‐T (1:5000). After washing, membranes were incubated for 1 h with the appropriate secondary antibodies. Labeled protein bands were detected under an enhanced chemiluminescence system (Amersham Biosciences/GE Healthcare). All reactions were performed in triplicate. Semi‐quantitative analyses were performed using Image J software (National Institute of Health, MD, USA) (n = 3, each group)."}, "hDPCs [4]": {"test_system": "hDPCs", "assay": "Comet assay", "format": "cell-based, human", "conditions": "1 mM H2O2", "experimental": "Human DPCs were combined with Comet Agarose (Abcam, ab238544) at 1/10 ratio (v/v), mixed by pipetting, and immediately transferred onto the top of the Comer Agarose Base Layer Slide (Abcam, ab238544). Set horizontally, the slides were incubated at 4°C in the dark for 15 min, and placed in a small basin/container containing pre‐chilled Lysis Buffer (Abcam, ab238544). They were immersed in the buffer for 1 h at 4°C in the dark. After 1 h, aspiration of the Lysis Buffer from the container was done and replaced with a pre‐chilled Alkaline Solution (Abcam, ab238544), followed by electrophoresis chamber filled with the Alkaline Electrophoresis Solution. Voltage was applied to the chamber for 30 min at 1 volt/cm. The slides were then rinsed with pre‐chilled DI H2O and replaced with cold 70% Ethanol for 5 min. The slide was removed from the 70% Ethanol and allowed to air dry. Once the slide was completely dry, staining with Vista Green DNA Dye (Abcam, ab238544) was done at room temperature for 15 min. Cells were visualized using confocal microscopy (LSM980, Zeiss, Germany) (n = 3, each group)."}, "hDPCs [5]": {"test_system": "hDPCs"}, "hDPCs [6]": {"test_system": "hDPCs", "conditions": "30 min or 1 h after H2O2 100 μM, 500 μM or 1 mM"}}}
{"smiles": "OO", "note": "[H2O2, hydrogen peroxide, reference compound]", "values": [{"measurement": "SA-β gal positive signals (induction of senescence)", "setting": "hDPCs [1]", "value": "began to deposit"}, {"measurement": "expression of γ-H2AX (immunofluorescence)", "setting": "hDPCs [2]", "value": "specifically detected in cellular nuclei"}, {"measurement": "expressions of γ-H2AX and P21 (DNA damage and cell cycle arrest)", "setting": "hDPCs [3]; 500 μM H2O2", "value": "upregulated"}, {"measurement": "protein expression level of γ-H2AX (western blot)", "setting": "hDPCs [3]; 1 mM and 2 mM H2O2", "value": "clearly detected"}, {"measurement": "DNA fragmentation (comet assay)", "setting": "hDPCs [4]", "value": "fragmented DNA visualized as a cell tail"}, {"measurement": "cytotoxicity of oxidative stress", "setting": "hDPCs [5]; 1 mM and 2 mM H2O2, after 48 h", "value": "severe cytotoxicity"}, {"measurement": "cell death / survival rate (WST-8)", "setting": "hDPCs [5]; H2O2 50 μM to 2 mM for 24 h", "value": "cell death occurred in a concentration‐dependent manner except for 50 μM"}, {"measurement": "endogenous mRNA expression level of Cpne7", "setting": "hDPCs [6]", "value": "started to increase"}]}
